In general, Ki refers to the dissociation constant of the complex between target and ligand, obtained from inhibition or displacement.

The source of these data is patent US20150057443A1, “Cycloalkyl Amine Compounds” (Prexa Pharmaceuticals, Inc., priority 2013, published 2015).

Where two headings read alike, the source gives them in different places.

Test [1] deals with human recombinant DAT (Homo sapiens, UniProt Q01959). The test can be described thus: DAT radioligand binding assay (scintillation proximity, [3H]WIN-35428). On the procedure:
(§1) Affinity of the compounds for monoamine transporters was determined by in vitro radioligand binding assays using cell membrane preparations derived from HEK293 cell lines stably expressing human recombinant DAT, NET or SERT receptor (Suven Life Sciences, Hyderabad, India).
(§2) Stable DAT cell lines were generated following procedures described in Eshelman et al., Molecular Pharmacology 45, 312-316; 1994. Stable NET cell lines were generated following procedures described in Pacholczyk et al., Nature 350, 350-354, 1991 and Galli et al., Journal Exp. Biol. 198, 2197-2212, 1995. Stable SERT cell lines were generated following procedures described in Ramamoorthy et al., Proc Natl Acad Sci USA 90, 2542-246, 1993.
(§3) Cell membranes were obtained from the above-referenced cell lines by manually homogenizing previously frozen cell pellets in Tris-HCl buffer and serially centrifugating and re-extracting the preparations according procedures described in Subbu et al., Journal Pharmacol ExpTher 327, 982-990, 2008.
(§4) A scintillation proximity assay was used to measure receptor binding. Homogenized membrane preparations (final protein concentration 8-15 ug/well) were pre-incubated with WGA PVT SPA beads (0.5 mg/well) for 5 minutes. Binding was initiated by adding high affinity ligands and test compounds (0.1 nM to 10 μM) or reference/positive control ligands to the membrane-bead complex. Plates were incubated for three hours and raw data counts recorded using a liquid scintillation counter (MicroBetaTriLux Counter, Perkin Elmer). Inhibition constants (Ki) were calculated using GraphPad Prism software (version 4.0).
DAT receptor binding was determined using procedures described in Skolnick et al., European Journal of Pharmacology, 461(2-3):99-104, 2003; and Eshleman et al., The Journal of Pharmacology and Experimental Therapeutics 289:877-885, 1999. A mixture of [3H]WIN-35428 (N-methyl 3H-WIN-35428, Perkin Elmer) and bead-membrane complex was added to wells containing test compound. Wells containing nomifensine maleate ([…], Sigma) were used to define non-specific […] binding. Total radioligand was defined by assay buffer containing 1% DMSO in the presence of [3H]WIN-35428. DAT Ki values were calculated using GraphPad Prism software (version 4.0).
(In general: Scintillation proximity formats need no separation of bound from free tracer.)

Test [2] addresses T1, human recombinant NET (Homo sapiens, UniProt P23975).
T1 construct: membranes)
Description: NET radioligand binding assay (scintillation proximity, [3H]nisoxetine). On the procedure:
as §1, §2, §3, §4
NET receptor binding was determined using procedures described in Mason et al., The Journal of Pharmacology and Experimental Therapeutics 323:720-729, 2007; and Eshleman et al., The Journal of Pharmacology and Experimental Therapeutics289:877-885, 1999. A mixture of [3H]nisoxetine hydrochloride (N-methyl-[3H]nisoxetine, Perkin Elmer) and bead-membrane complex was added to wells containing test compound. Wells containing unlabeled nisoxetine (100 uM, Sigma) were used to define non-specific NET binding. Total radioligand was defined using assay buffer containing 1% DMSO in the presence of [3H]nisoxetine. NET Ki values were calculated using GraphPad Prism software (version 4.0).

For test [3], the target named is T2, human recombinant SERT (Homo sapiens, UniProt P31645).
T2 construct: membranes)
T2 sequence (P31645 whole entry): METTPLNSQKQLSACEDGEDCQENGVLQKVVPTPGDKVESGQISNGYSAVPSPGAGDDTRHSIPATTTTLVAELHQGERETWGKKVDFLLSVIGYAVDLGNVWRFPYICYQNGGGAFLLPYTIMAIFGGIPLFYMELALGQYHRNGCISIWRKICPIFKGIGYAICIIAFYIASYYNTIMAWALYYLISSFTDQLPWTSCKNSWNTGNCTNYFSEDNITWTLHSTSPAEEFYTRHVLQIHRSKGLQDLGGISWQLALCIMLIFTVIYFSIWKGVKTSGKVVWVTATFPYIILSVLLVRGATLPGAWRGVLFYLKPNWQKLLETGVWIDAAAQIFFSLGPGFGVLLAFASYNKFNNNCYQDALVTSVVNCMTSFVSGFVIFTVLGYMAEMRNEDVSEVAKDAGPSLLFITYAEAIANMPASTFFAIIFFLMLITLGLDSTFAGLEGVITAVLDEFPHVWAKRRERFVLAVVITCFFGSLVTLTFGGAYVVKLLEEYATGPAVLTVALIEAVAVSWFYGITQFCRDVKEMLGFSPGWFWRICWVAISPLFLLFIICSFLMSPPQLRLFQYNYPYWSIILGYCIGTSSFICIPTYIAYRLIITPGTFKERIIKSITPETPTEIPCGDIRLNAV
Description: SERT radioligand binding assay (scintillation proximity, [3H]citalopram). On the procedure: as §1, §2, §3, §4
SERT receptor binding was determined using procedures described in Owens et al., The Journal of Pharmacology and Experimental Therapeutics 283:1305-1322, 1997. A mixture of [3H]citalopram (N-methyl-[3H]citalopram, Perkin Elmer) and bead-membrane complex was added to wells containing test compound. Non-specific binding was determined using wells containing venlafaxine hydrochloride (100 uM, Sigma). Total radioligand was determined using assay buffer containing 1% DMSO in the presence of [3H]citalopram. SERT Ki values were calculated using GraphPad Prism software (version 4.0).

Where [4] appears, read: HEK293 cell membranes expressing human recombinant DAT, [3H]WIN-35428, SPA, read-out: DAT Ki.
Setting [5] is: HEK293 cell membranes expressing human recombinant NET, [3H]nisoxetine, SPA, read-out: NET Ki.
[6] abbreviates: HEK293 cell membranes expressing human recombinant SERT, [3H]citalopram, SPA, read-out: SERT Ki.

Sequence of human recombinant DAT (Q01959 whole entry): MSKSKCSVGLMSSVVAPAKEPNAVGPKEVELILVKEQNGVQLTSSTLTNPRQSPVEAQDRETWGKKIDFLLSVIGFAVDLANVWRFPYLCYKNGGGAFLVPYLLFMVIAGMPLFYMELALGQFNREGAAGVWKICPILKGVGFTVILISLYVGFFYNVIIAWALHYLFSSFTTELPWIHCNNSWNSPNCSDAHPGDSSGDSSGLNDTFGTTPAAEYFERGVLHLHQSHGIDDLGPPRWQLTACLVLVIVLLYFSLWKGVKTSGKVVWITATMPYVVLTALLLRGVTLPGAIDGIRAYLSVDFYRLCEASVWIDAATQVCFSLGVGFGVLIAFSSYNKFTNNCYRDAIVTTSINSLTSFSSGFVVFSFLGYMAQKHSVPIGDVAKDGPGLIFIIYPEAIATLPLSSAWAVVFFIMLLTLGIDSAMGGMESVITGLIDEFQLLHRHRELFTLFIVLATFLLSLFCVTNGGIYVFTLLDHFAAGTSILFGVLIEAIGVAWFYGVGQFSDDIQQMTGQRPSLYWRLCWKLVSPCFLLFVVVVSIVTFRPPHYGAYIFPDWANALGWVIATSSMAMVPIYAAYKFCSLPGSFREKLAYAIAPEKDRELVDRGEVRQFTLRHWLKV
T1 sequence (P23975 whole entry): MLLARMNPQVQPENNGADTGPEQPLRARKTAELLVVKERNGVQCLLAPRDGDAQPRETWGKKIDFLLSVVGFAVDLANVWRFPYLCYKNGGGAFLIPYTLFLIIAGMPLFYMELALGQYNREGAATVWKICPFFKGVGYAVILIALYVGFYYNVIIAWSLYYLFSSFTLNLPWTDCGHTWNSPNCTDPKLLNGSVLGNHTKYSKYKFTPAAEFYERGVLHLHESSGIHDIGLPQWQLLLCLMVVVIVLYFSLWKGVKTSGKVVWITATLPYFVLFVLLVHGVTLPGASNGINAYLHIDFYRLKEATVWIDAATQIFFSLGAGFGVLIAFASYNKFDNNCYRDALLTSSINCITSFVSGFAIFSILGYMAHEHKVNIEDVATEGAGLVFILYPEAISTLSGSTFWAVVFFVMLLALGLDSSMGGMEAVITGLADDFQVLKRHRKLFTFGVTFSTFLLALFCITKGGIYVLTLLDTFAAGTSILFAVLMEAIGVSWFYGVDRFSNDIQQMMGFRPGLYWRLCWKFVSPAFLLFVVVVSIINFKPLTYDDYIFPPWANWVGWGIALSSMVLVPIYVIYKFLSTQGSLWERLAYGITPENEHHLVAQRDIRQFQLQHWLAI

Consider “1-{2-[1-(3-Chlorophenyl)cyclobutyl]-2-hydroxyethyl}-3,3-dimethylpiperidin-1-ium chloride [Compound 11]”, for which the Ki in test [1] (setting [4]), in test [2] (setting [5]) and in test [3] (setting [6]) was over 500 nM each time.
For the compound `O=C(CN1CCCCC1)C1(c2cccc(Cl)c2)CCC1` [Compound 69], the Ki in test [1], in test [2] (setting [5]) and in test [3] (setting [6]) was over 500 nM throughout.
For the compound `CCN(CC(O)C1(c2ccc(Cl)c(Cl)c2)CCC1)C(C)C` (stereo not drawn) [Compound 47, {2-[1-(3,4-Dichlorophenyl)cyclobutyl]-2-hydroxyethyl}(ethyl)(propan-2-yl)azanium chloride], the inhibition constant (Ki) was 11 to 100 nM in test [1], 11 to 100 nM in test [2] (setting [5]) and 101 to 500 nM in test [3] (setting [6]).
Turning to `OC(CN1CCCCC1)C1(c2ccc(Cl)c(Cl)c2)CCCC1` (stereo not drawn) [Compound 60, 1-{2-[1-(3,4-dichlorophenyl)cyclopentyl]-2-hydroxyethyl}piperidin-1-ium chloride], the Ki in test [1] fell in the range of 11 to 100 nM; in test [2] (setting [5]) it was 101 to 500 nM; in test [3] (setting [6]), 101 to 500 nM.
For the compound `OC(CN1CCCCC1)C1(c2cccc(Cl)c2)CCC1` (stereo not drawn) [Compound 12, 1-{2-[1-(3-Chlorophenyl)cyclobutyl]-2-hydroxyethyl}piperidin-1-ium chloride], the inhibitory constant (Ki) in test [1], in test [2] (setting [5]) and in test [3] (setting [6]) was over 500 nM each time.
For `OC(CN1CC2CC(F)C1C2)C1(c2ccc(Cl)c(Cl)c2)CCC1` (stereo not drawn) [Compound 39, 2-{2-[1-(3,4-Dichlorophenyl)cyclobutyl]-2-hydroxyethyl}-6-fluoro-2-azabicyclo[2.2.1]heptan-2-ium chloride], the inhibition constant Ki in test [1] was 101 to 500 nM; in test [2] (setting [5]), 101 to 500 nM; in test [3] (setting [6]), over 500 nM.
In the case of `O[C@H](CN1CCCCC1)C1(c2ccc(Cl)c(Cl)c2)CCC1` [Compound 13, 1-[(2S)-2-[1-(3,4-dichlorophenyl)cyclobutyl]-2-hydroxyethyl]piperidin-1-ium chloride], the inhibition constant (Ki) in test [1] was 11 to 100 nM; in test [2] (setting [5]) it was 11 to 100 nM; in test [3] (setting [6]), over 500 nM.
`CC1(NCC(O)C2(c3ccc(Cl)c(Cl)c3)CCC2)CC1` (stereo not drawn) [Compound 34, N-{2-[1-(3,4-Dichlorophenyl)cyclobutyl]-2-hydroxyethyl}-1-methylcyclopropan-1-aminium chloride]: the Ki lay in the range of 11 to 100 nM in test [1], 11 to 100 nM in test [2] (setting [5]) and 101 to 500 nM in test [3] (setting [6]).
Regarding `CC(CF)NCC(O)C1(c2ccc(Cl)c(Cl)c2)CCC1` (stereo not drawn) [Compound 29, {2-[1-(3,4-dichlorophenyl)cyclobutyl]-2-hydroxyethyl}(1-fluoropropan-2-yl)azanium chloride], the results for the inhibitory constant (Ki) in test [1], in test [2] (setting [5]) and in test [3] (setting [6]) were 11 to 100 nM, 101 to 500 nM and over 500 nM, respectively.
In the case of `OC(CN1CCCCCC1)C1(c2ccc(Cl)c(Cl)c2)CCC1` (stereo not drawn) [Compound 16, 1-{2-[1-(3,4-Dichlorophenyl)cyclobutyl]-2-hydroxyethyl}azepan-1-ium chloride], the Ki in test [1] was 11 to 100 nM; in test [2] (setting [5]), 101 to 500 nM; in test [3] (setting [6]), over 500 nM.
For `O=C(CN1CCCCC1)C1(c2ccc(Cl)c(Cl)c2)CCC1` [Compound 67] the same measures were 11 to 100 nM, over 500 nM and 101 to 500 nM.
For `OC(CN1CCCC1)C1(c2ccc(Cl)c(Cl)c2)CCC1` (stereo not drawn) [Compound 17, 1-{2-[1-(3,4-Dichlorophenyl)cyclobutyl]-2-hydroxyethyl}pyrrolidin-1-ium chloride] the same measures were 11 to 100 nM, 101 to 500 nM and over 500 nM.
For `OC(CN1CCCCC1)C1(c2ccc(Cl)cc2)CCC1` (stereo not drawn) [Compound 6, 1-{2-[1-(4-Chlorophenyl)cyclobutyl]-2-hydroxyethyl}piperidin-1-ium chloride] the same measures were over 500 nM, over 500 nM and over 500 nM.
As to `O=C(CN1CCCCC1)C1(c2ccc(Cl)cc2)CCC1` [Compound 66], the Ki in test [1] (setting [4]), in test [2] and in test [3] was over 500 nM throughout.
In the case of `COC1CCCN(CC(O)C2(c3ccc(Cl)c(Cl)c3)CCC2)C1` (stereo not drawn) [Compound 33, 1-{2-[1-(3,4-Dichlorophenyl)cyclobutyl]-2-hydroxyethyl}-3-methoxypiperidin-1-ium chloride], the Ki in test [1] was under 10 nM; in test [2] (setting [5]) it was 101 to 500 nM; in test [3] (setting [6]), over 500 nM.
With `O=C(CN1CCCCC1)C1(c2ccc(Cl)c(Cl)c2)CCCC1` [Compound 61, 1-{2-[1-(3,4-dichlorophenyl)cyclopentyl]-2-oxoethyl}piperidin-1-ium chloride], the inhibition constant Ki in test [1] is 11 to 100 nM; in test [2] (setting [5]), over 500 nM; in test [3] (setting [6]), over 500 nM.
Take `CC(O)(CN1CCCCC1)C1(c2ccc(Cl)c(Cl)c2)CCC1` (stereo not drawn) [Compound 71, 1-{2-[1-(3,4-dichlorophenyl)cyclobutyl]-2-hydroxypropyl}piperidin-1-ium chloride]: the Ki in test [1] is 11 to 100 nM; in test [2] (setting [5]), 101 to 500 nM; in test [3] (setting [6]) it was over 500 nM.
Turning to `OC(CN1CCC(F)CC1)C1(c2ccc(Cl)c(Cl)c2)CCC1` (stereo not drawn) [Compound 23, 1-{2-[1-(3,4-Dichlorophenyl)cyclobutyl]-2-hydroxyethyl}-4-fluoropiperidin-1-ium chloride], the Ki was under 10 nM in test [1], 101 to 500 nM in test [2] (setting [5]) and over 500 nM in test [3] (setting [6]).
`c1ccc(C2(CN3CCCCC3)CCC2)cc1` [Compound 4, 1-[(1-phenylcyclobutyl)methyl]piperidin-1-ium chloride]: the Ki in test [1], in test [2] (setting [5]) and in test [3] (setting [6]) was over 500 nM in each case.
With `O[C@@H](CN1CCCCC1)C1(c2ccc(Cl)c(Cl)c2)CCC1` [Compound 14, 1-[(2R)-2-[1-(3,4-dichlorophenyl)cyclobutyl]-2-hydroxyethyl]piperidin-1-ium chloride], the values for the Ki in test [1], in test [2] (setting [5]) and in test [3] (setting [6]) were 11 to 100 nM, 101 to 500 nM and over 500 nM, respectively.
For `Clc1ccc(C2(CN3CCCCC3)CCC2)cc1` [Compound 1] the same measures were 101 to 500 nM, over 500 nM and over 500 nM.
As to `OC(CNC1CC1)C1(c2ccc(Cl)c(Cl)c2)CCC1` (stereo not drawn) [Compound 35, N-{2-[1-(3,4-Dichlorophenyl)cyclobutyl]-2-hydroxyethyl}cyclopropanaminium chloride], the Ki in test [1] was 11 to 100 nM; in test [2] (setting [5]) it was 101 to 500 nM; in test [3] (setting [6]) it was over 500 nM.
For the compound `CC(C)NCC(O)C1(c2ccc(Cl)c(Cl)c2)CCC1` (stereo not drawn) [Compound 19, {2-[1-(3,4-dichlorophenyl)cyclobutyl]-2-hydroxyethyl}(propan-2-yl)azanium chloride], the Ki lay within 11 to 100 nM in test [1], 11 to 100 nM in test [2] (setting [5]) and 101 to 500 nM in test [3] (setting [6]).
For the compound `OC(CN1CCCCC1)C1(c2ccc(Cl)c(Cl)c2)CCC1` (stereo not drawn) [Compound 7, 1-{2-[1-(3,4-Dichlorophenyl)cyclobutyl]-2-hydroxyethyl}piperidin-1-ium chloride], the Ki is 11 to 100 nM in test [1], 101 to 500 nM in test [2] (setting [5]) and over 500 nM in test [3] (setting [6]).
`OC(CN1CCCC(F)(F)C1)C1(c2ccc(Cl)c(Cl)c2)CCC1` (stereo not drawn) [Compound 22, 1-{2-[1-(3,4-Dichlorophenyl)cyclobutyl]-2-hydroxyethyl}-3,3-difluoropiperidin-1-ium chloride]: the inhibition constant Ki in test [1] was under 10 nM; in test [2] (setting [5]), 101 to 500 nM; in test [3] (setting [6]), over 500 nM.
